Experimental data reported in US8614324B2, “Filamin A binding anti-inflammatory and analgesic” (priority 2008, dated 2013).

target: T1, mu opiate receptor (MOR) (Rattus norvegicus, UniProt P33535); experiment: MOR agonist activity, [35S]GTPγS binding assay using striatal membranes; type: biochemical; design: MOR agonist activity, [35S]GTPγS binding to Gαo: reference not given here; settings: 0.1 μM compound, striatal membranes
T1 construct: from tissue; host or cells: striatal membrane preparation (rat striatum)
Description: To assess the mu opiate receptor (MOR) agonist activity of positive compounds from the FLNA screening, compounds were tested in a [^35S]GTPγS binding assay using striatal membranes.
Striatal tissue was homogenized in 10 volumes of ice cold 25 mM HEPES buffer, pH 7.4, which contained 1 mM EGTA, 100 mM sucrose, 50 μg/ml leupeptin, 0.04 mM PMSF, 2 μg/ml soybean trypsin inhibitor and 0.2% 2-mercaptoethanol. The homogenates were centrifuged at 800×g for 5 minutes and the supernatants were centrifuged at 49,000×g for 20 minutes. The resulting pellets were suspended in 10 volume of reaction buffer, which contained 25 mM HEPES, pH 7.5, 100 mM NaCl, 50 μg/ml leupeptin, 2 μg/ml soybean trypsin inhibitor, 0.04 mM PMSF and 0.02% […].
The resultant striatal membrane preparation (200 μg) was admixed and maintained (incubated) at 30° C. for 5 minutes in reaction buffer as above that additionally contained 1 mM MgCl2 and 0.5 nM [^35S]GTPγS (0.1 μCi/assay, PerkinElmer Life and Analytical Sciences) in a total volume of 250 μl and continued for 5 minutes in the absence or presence of 0.1-10 μM of an assayed compound of interest. The reaction was terminated by dilution with 750 μl of ice-cold reaction buffer that contained 20 mM MgCl2 and 1 mM EGTA and immediate centrifugation at 16,000×g for 5 minutes.
The resulting pellet was solubilized by sonicating for 10 seconds in 0.5 ml of immunoprecipitation buffer containing 0.5% digitonin, 0.2% sodium cholate and 0.5% NP-40. Normal rabbit serum (1 μl) was added to 1 ml of lysate and incubated at 25° C. for 30 minutes. Nonspecific immune complexes were removed by incubation with 25 μl of protein A/G-conjugated agarose beads at 25° C. for 30 minutes followed by centrifugation at 5,000×g at 4° C. for 5 minutes. The supernatant was divided and separately incubated at 25° C. for 30 minutes with antibodies raised against Gαo proteins (1:1,000 dilutions).
The immunocomplexes so formed were collected by incubation at 25° C. for 30 minutes with 40 μl of agarose-conjugated protein A/G beads and centrifugation at 5,000×g at 4° C. for 5 minutes. The pellet was washed and suspended in buffer containing 50 mM Tris-HCl, pH 8.0, and 1% NP-40. The radioactivity in the suspension was determined by liquid scintillation spectrometry. […] DAMGO (H-Tyr-D-Ala-Gly-N-MePhe-Gly-OH; 1 or 10 μM) was used as a positive control.

T1 sequence (P33535 whole entry): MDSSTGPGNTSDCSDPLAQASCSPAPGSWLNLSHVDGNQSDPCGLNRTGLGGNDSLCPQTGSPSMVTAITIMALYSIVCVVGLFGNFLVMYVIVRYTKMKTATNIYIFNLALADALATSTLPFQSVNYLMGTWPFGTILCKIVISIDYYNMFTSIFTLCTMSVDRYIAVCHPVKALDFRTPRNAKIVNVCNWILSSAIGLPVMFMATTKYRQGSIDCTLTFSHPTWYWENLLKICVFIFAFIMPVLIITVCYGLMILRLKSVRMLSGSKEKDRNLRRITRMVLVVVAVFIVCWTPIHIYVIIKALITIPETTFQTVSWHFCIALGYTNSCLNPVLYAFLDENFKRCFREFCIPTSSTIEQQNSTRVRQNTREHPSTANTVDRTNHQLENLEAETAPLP

SMILES | MOR agonist activity, [35S]GTPγS binding to Gαo [%]
O=C1CN(C2CCc3ccccc3C2)C2(CCN(S(=O)(=O)c3ccccc3)CC2)N1 (stereo not drawn) [C0136M(P5)] | 176.8
O=C1CN(Cc2ccccc2)C2(CCN(C3CCCCC3)CC2)N1 [C0137M(P7)] | 180.8
COc1ccc(S(=O)(=O)N2CCC3(CC2)NCCO3)cc1 [Compound C0026] | 207.2
COc1ccc(S(=O)(=O)N2CCOC23CCNCC3)cc1 [Compound C0027] | 233.2
O=[N+]([O-])c1ccc(S(=O)(=O)N2CCC3(CC2)NCCO3)cc1 [Compound C0040] | 145.8
O=[N+]([O-])c1ccc(S(=O)(=O)N2CCC3(CC2)NCCS3)cc1 [Compound C0044] | 173.7
CC(=O)c1ccc(S(=O)(=O)N2CCOC23CCNCC3)cc1 [Compound C0046] | 286.2
CC(=O)N1CCSC12CCN(S(=O)(=O)c1ccc([N+](=O)[O-])cc1)CC2 [Compound C0050] | 110.3
CC(=O)c1ccc(S(=O)(=O)N2CCC3(CC2)OCCN3S(C)(=O)=O)cc1 [Compound C0056] | 98.6
CC(=O)c1ccc(S(=O)(=O)N2CCC3(CC2)NCCS3)cc1 [Compound C0060] | 166.5
CC(=O)c1ccc(S(=O)(=O)N2CC(=O)NC23CCNCC3)cc1 [Compound C0086M] | 206.8
CC(=O)c1ccc(S(=O)(=O)N2CCC3(CC2)NC(=O)CO3)cc1 [Compound C0087M] | 262.8
COc1ccc(S(=O)(=O)N2CCOC23CCN(C)CC3)cc1 [Compound C0088M] | 276.3
CCN1CCC2(CC1)OCCN2S(=O)(=O)c1ccc(OC)cc1 [Compound C0089M] | 234.5
COc1ccc(S(=O)(=O)N2CCOC23CCN(CC2CC2)CC3)cc1 [Compound C0090M] | 237.0
C=CCN1CCC2(CC1)OCCN2S(=O)(=O)c1ccc(OC)cc1 [Compound C0091M] | 207.9
CC(=O)c1ccc(S(=O)(=O)N2CCOC23CCN(C)CC3)cc1 [Compound C0093M] | 140.0

same assay, conditions: 1 μM compound + BFNA (1 μM β-funaltrexamine)

SMILES | MOR agonist activity, [35S]GTPγS binding to Gαo [%]
O=C1CN(C2CCc3ccccc3C2)C2(CCN(S(=O)(=O)c3ccccc3)CC2)N1 (stereo not drawn) [C0136M(P5)] | 74.5
O=C1CN(Cc2ccccc2)C2(CCN(C3CCCCC3)CC2)N1 [C0137M(P7)] | 55.8
COc1ccc(S(=O)(=O)N2CCC3(CC2)NCCO3)cc1 [Compound C0026] | 21.2
COc1ccc(S(=O)(=O)N2CCOC23CCNCC3)cc1 [Compound C0027] | 72.2
O=[N+]([O-])c1ccc(S(=O)(=O)N2CCC3(CC2)NCCO3)cc1 [Compound C0040] | 90.4
O=[N+]([O-])c1ccc(S(=O)(=O)N2CCC3(CC2)NCCS3)cc1 [Compound C0044] | 59.1
CC(=O)c1ccc(S(=O)(=O)N2CCOC23CCNCC3)cc1 [Compound C0046] | 156.8
CC(=O)N1CCSC12CCN(S(=O)(=O)c1ccc([N+](=O)[O-])cc1)CC2 [Compound C0050] | 59.0
CC(=O)c1ccc(S(=O)(=O)N2CCC3(CC2)OCCN3S(C)(=O)=O)cc1 [Compound C0056] | 86.3
CC(=O)c1ccc(S(=O)(=O)N2CCC3(CC2)NCCS3)cc1 [Compound C0060] | 143.9
CC(=O)c1ccc(S(=O)(=O)N2CC(=O)NC23CCNCC3)cc1 [Compound C0086M] | 152.3
CC(=O)c1ccc(S(=O)(=O)N2CCC3(CC2)NC(=O)CO3)cc1 [Compound C0087M] | 142.5
COc1ccc(S(=O)(=O)N2CCOC23CCN(C)CC3)cc1 [Compound C0088M] | 177.1
CCN1CCC2(CC1)OCCN2S(=O)(=O)c1ccc(OC)cc1 [Compound C0089M] | 81.9
COc1ccc(S(=O)(=O)N2CCOC23CCN(CC2CC2)CC3)cc1 [Compound C0090M] | 41.0
C=CCN1CCC2(CC1)OCCN2S(=O)(=O)c1ccc(OC)cc1 [Compound C0091M] | 80.8
CC(=O)c1ccc(S(=O)(=O)N2CCOC23CCN(C)CC3)cc1 [Compound C0093M] | 44.0

same assay, conditions: 1 μM compound, striatal membranes

SMILES | MOR agonist activity, [35S]GTPγS binding to Gαo [%]
O=C1CN(C2CCc3ccccc3C2)C2(CCN(S(=O)(=O)c3ccccc3)CC2)N1 (stereo not drawn) [C0136M(P5)] | 237.3
O=C1CN(Cc2ccccc2)C2(CCN(C3CCCCC3)CC2)N1 [C0137M(P7)] | 193.8
COc1ccc(S(=O)(=O)N2CCC3(CC2)NCCO3)cc1 [Compound C0026] | 288.4
COc1ccc(S(=O)(=O)N2CCOC23CCNCC3)cc1 [Compound C0027] | 313.9
O=[N+]([O-])c1ccc(S(=O)(=O)N2CCC3(CC2)NCCO3)cc1 [Compound C0040] | 308.3
O=[N+]([O-])c1ccc(S(=O)(=O)N2CCC3(CC2)NCCS3)cc1 [Compound C0044] | 280.1
CC(=O)c1ccc(S(=O)(=O)N2CCOC23CCNCC3)cc1 [Compound C0046] | 492.9
CC(=O)N1CCSC12CCN(S(=O)(=O)c1ccc([N+](=O)[O-])cc1)CC2 [Compound C0050] | 127.6
CC(=O)c1ccc(S(=O)(=O)N2CCC3(CC2)OCCN3S(C)(=O)=O)cc1 [Compound C0056] | 193.4
CC(=O)c1ccc(S(=O)(=O)N2CCC3(CC2)NCCS3)cc1 [Compound C0060] | 218.9
CC(=O)c1ccc(S(=O)(=O)N2CC(=O)NC23CCNCC3)cc1 [Compound C0086M] | 265.3
CC(=O)c1ccc(S(=O)(=O)N2CCC3(CC2)NC(=O)CO3)cc1 [Compound C0087M] | 329.6
COc1ccc(S(=O)(=O)N2CCOC23CCN(C)CC3)cc1 [Compound C0088M] | 355.3
CCN1CCC2(CC1)OCCN2S(=O)(=O)c1ccc(OC)cc1 [Compound C0089M] | 295.3
COc1ccc(S(=O)(=O)N2CCOC23CCN(CC2CC2)CC3)cc1 [Compound C0090M] | 341.0
C=CCN1CCC2(CC1)OCCN2S(=O)(=O)c1ccc(OC)cc1 [Compound C0091M] | 274.4
CC(=O)c1ccc(S(=O)(=O)N2CCOC23CCN(C)CC3)cc1 [Compound C0093M] | 211.8
